Assay results from a melting point compilation (Tetko et al.; mined from patent text by program, amines drawn as free bases though some values may be those of a salt).

Row | Compound | melting point [°C]
1 | COC(=O)C(C)(Oc1ccc(-c2ccc(Cl)cc2)cc1)C(F)(F)F (configuration not stated) | 87 to 88
2 | NNc1nccc(-c2ccc(Oc3ccccc3)cc2)c1Cl | 173
3 | O=C(c1ccc(-c2cnc3c(c2)N(Cc2c(F)ccc(F)c2Cl)CCN3)cc1)N1CCC(N2CCCC2)CC1 | 93 to 95
4 | CCCCc1nn(-c2cc(NC(=O)CC)ccc2Cl)c(=O)n1Cc1ccc(-c2ccccc2S(=O)(=O)NC(=O)c2c(F)cccc2Cl)cc1F | 200 to 203
5 | CC1=CC2=C(N3CN(n4cc(C)nc4-c4cc(Cl)ccc4Cl)C=C3N=N2)N(c2cc(Cl)ccc2Cl)C1 | 130
6 | CN1CCC(c2cccc3ccc(NC(=O)c4ccccc4)cc23)C1 (configuration not stated) | 137 to 145
7 | COc1cc(C(=O)C=Cc2ccncc2)cc(OC)c1OC | 127 to 129
8 | Cc1cnc2nc(C(F)(F)F)n(C)c2c1 | 100
9 | Cc1cc(O)c(SCCC(C)C)c(=O)o1 | 81 to 82
10 | O=c1n(-c2ccc(Cl)cc2)c(=O)n(SC(Cl)(Cl)Cl)n1SC(Cl)(Cl)Cl | 169
11 | CS(=O)(=O)c1c(N2CCN(C(=O)c3cccs3)CC2)c2cccnc2n(Cc2ccccc2)c1=O | 223
12 | COc1ccc(C=CC(=O)N(C)O)cc1OC | 150
13 | CC(=O)NC(=N)N(C)C1CCN(c2nc3ccccc3n2Cc2ccc(F)cc2)CC1 | 192
14 | CC1(CCC(=O)O)CC(=O)c2ccc(OCc3cccc(OCc4ccc5ccccc5n4)c3)cc2O1 (configuration not stated) | 152 to 154
15 | CCCCCC(=O)NC[C@H](O)CC(=O)NN | 172
16 | Nc1ccc(CP2(=O)OCCO2)cc1 | 183 to 184
17 | COC(=O)c1cccc2c1cc1n2CCCC1 | 102 to 103
18 | O[C@H](COc1cccc2[nH]ccc12)CN1CC=C(c2c[nH]c3ccc(F)cc23)CC1 | 95 to 100
19 | CC(=O)N1CCc2ccc(C(=O)CCCC3CCN(Cc4ccc(F)cc4)CC3)cc2CC1 | 92 to 94
20 | CCC(=O)OCC12CCC(=O)C=C1CCC1C2CCC2(C)C(OC(=O)CC)CCC12 (configuration not stated) | 82 to 84
21 | COc1ccc(CNC(=O)C(Cc2ccccc2)NC(=O)Nc2n[nH]c(=S)s2)cc1OC (configuration not stated) | 207 to 210
22 | CCCCOCCOc1ccc(-c2cnc(N3CCCC3)c(/C=C(\C)C(=O)O)c2)cc1 | 106 to 107
23 | O=c1c2cc(F)c(N3CCCC3)cc2n(-c2ccc(F)cc2F)c(=O)n1OCc1ccccc1 | 212 to 214
24 | CCOC(=O)c1c(SCOC)nc2cc(F)c(F)cc2c1O | 123 to 127
25 | ClC(Cl)(Cl)C1Nc2ccccc2CO1 (configuration not stated) | 90 to 92

Row | Compound | melting point [°C]
26 | N#Cc1ccc(NC(=O)CCCC(=O)O)cc1 | 200 to 201
27 | Nc1ncccc1-c1nc2cccnc2n1-c1ccc(CNC(=O)c2ccccc2)cc1 | 226 to 228
28 | CS(=O)(=O)N(Cc1cccnc1)c1ccc(Cl)cc1 | 138 to 140
29 | Nc1ccc(OCC2COCCO2)cc1 (configuration not stated) | 86 to 87
30 | OC(CNC1=NCCCN1)c1ccccc1 (configuration not stated) | 188
31 | CCCCCCC(c1ccc2[nH]c(-c3ccc(F)cc3)nc2c1)n1ccnc1 (configuration not stated) | 122
32 | O=c1oc(-c2ccccc2)cc(O)c1SCC1CCCCC1 | 141 to 143
33 | Cc1c(CC(=O)O)c2cc(OCc3ccc4ccccc4c3)ccc2n1Cc1ccc(Cl)cc1 | 168 to 170
34 | CC(C)NC(=S)n1ccc2ccc(Cl)cc21 | 92 to 93
35 | CCOC(=O)C1=CC(C(=O)c2cc(C)ccc2O)=CN2CCc3c([nH]c4ccccc34)C12C(=O)OCC (configuration not stated) | 208
36 | COc1ccc2c(c1)c(C)c(-c1ccc(O)cc1)n2Cc1ccc(OCCN2CCCCC2)cc1 | 87 to 90
37 | Nc1ccc(Oc2cc3ccccc3cc2Oc2ccc(N)c(O)c2)cc1O | 196 to 197
38 | NC(=N[N+](=O)[O-])N1CCN(Cc2ccc(Cl)nc2)C1 | 170 to 174
39 | COc1cc2c(cc1OC)CN(CCCSc1ccc(NC(=O)c3cccc4c(=O)c5cccc(C)c5[nH]c34)cc1)CC2 | 155
40 | CNC(=O)N(O)Cc1cc2ccccc2s1 | 160 to 161
41 | CCc1nc2c(N)nc3cc(/C=C/C(=O)OC)ccc3c2n1CC(C)(C)O | 238 to 240
42 | CCc1c(Cl)nc(Cl)nc1N(C=O)c1cc(C)cc(C)c1 | 124 to 125
43 | Nc1cc(-n2cc(C(=O)O)c(=O)c3cc(F)c(F)c(Cl)c32)c(F)cc1F | 225 to 226
44 | CC(C)=C1CCCP1(=O)c1ccccc1 (configuration not stated) | 143 to 146
45 | CCc1ccc(Oc2ccc([C@@H]3CCCN4CCS(=O)(=O)N=C34)cc2)cc1 | 152 to 153
46 | Cc1cccc(-c2n[nH]cc2-c2ccc(F)c(-c3cc[nH]n3)c2)n1 | 105 to 108
47 | O=S(=O)(c1ccc(Nc2nccc(Nc3ccc(F)cc3)n2)cc1)N(CCN1CCCC1)C1CCC2(CC1)OCCO2 | 155
48 | CN1CC(CCN2CCN(c3cccc(F)c3)CC2)OC1=O (configuration not stated) | 92 to 93
49 | CNC(=O)CC1CN=C(c2cc3cc(Oc4ccc(S(C)(=O)=O)cn4)cc(OC)c3[nH]2)S1 (configuration not stated) | 207 to 209
50 | CC(=O)OCC1SC(N2CCc3ccccc32)C(OC(C)=O)C(OC(C)=O)C1OC(C)=O (configuration not stated) | 163 to 165

Row | Compound | melting point [°C]
51 | CCC(=S)C1=C(C)NC2=C(C(=O)c3ccccc32)C1c1ccccc1[N+](=O)[O-] (configuration not stated) | 221
52 | CCC(=O)N1CCc2ccccc2C(Oc2ccc(C(F)(F)F)cc2)C1 (configuration not stated) | 109 to 110
53 | CN(C)CCOc1cc(NS(=O)(=O)c2ccc(Oc3cccc(Cl)c3C#N)cc2)ccc1Cl | 103 to 106
54 | CCCCOCCOc1ccc(-c2ccc(N3CC=CC3)c(C=C(C)C(=O)O)c2)cc1 | 138 to 140
55 | O=S(Cc1ccccc1)c1ncc(Cl)cn1 (configuration not stated) | 92
56 | O=C(Nc1nc(-c2ccccc2)cs1)Nc1nc(-c2ccccc2)cs1 | 285 to 287
57 | COc1ccc(C)cc1NC(=O)Nc1ccc2c(c1)CCN(C(=O)Nc1ccc(OCC(O)CO)cc1Cl)C2 (configuration not stated) | 119 to 121
58 | CN1CC(=O)Nc2ccc(Cl)cc2C1=O | > 250
59 | NC(=O)C1C=Cc2ccccc2N1C(=O)c1ccc(F)cc1 (configuration not stated) | 149 to 151
60 | OCc1cccc(C(O)(C(F)(F)F)C(F)(F)F)n1 | 62 to 63
61 | CS(=O)(=O)Nc1ccc(CCN2CCN(c3ccc(NS(C)(=O)=O)c(F)c3)CC2)cc1 | 232 to 234
62 | CCCc1nc2c(N)nc3ccc(-c4ccc(CO)cc4)cc3c2s1 | 212 to 214
63 | CCCC(C)N1CCC2(CC1)CSC1=C(O2)c2ccccc2C(=O)C1=O (configuration not stated) | 109 to 111
64 | O=P(O)(O)Cc1ccccc1-c1ccccc1 | 168 to 169
65 | CCCCCCCCCCCCCCCCCCOc1cc(OCc2ccccc2)cc(N(CC(=O)OC)CC(=O)OC)c1 | 66 to 68
66 | COc1ccc(Oc2cccc(Cl)n2)cc1 | 63 to 65
67 | CCc1nc2c(C)c(S(=O)(=O)N(C)C)c(C)nc2n1Cc1ccc(-c2ccccc2-c2c(OC(C)C)c(=O)c2=O)cc1 | 80
68 | COc1ccc(C(=C/C=C/C(=O)NCCCCc2cncc3ccccc23)c2ccc(OC)cc2)cc1 | 91 to 93
69 | CC12CC[C@](C(=O)N3CCC4(C=Cc5ccccc54)CC3)(OC1=O)C2(C)C | 215 to 216
70 | O=C(Nc1c(C(O)(C(F)(F)F)C(F)(F)F)ccc2ccccc12)c1cc(Cl)cc(Cl)c1 | 205 to 207
71 | C[C@@H](S[C@H]1CO[C@H](/C=C/c2cccnc2)OC1)[C@](O)(Cn1cncn1)c1ccc(F)cc1F | 118 to 125
72 | CNC(=O)c1cc(-c2ccc(OC)cc2)nn(C(C)C)c1=O | 154
73 | CC(=O)NC(CCC(=O)c1c(F)cccc1F)c1ccc(Br)cc1 (configuration not stated) | 162 to 163
74 | COc1cc(Nc2c(C#N)cnc3cc(-c4ccc(N5CCOCC5)cc4)ccc23)c(Cl)cc1Cl | 162 to 164
75 | CN1CCN(Cc2ccc3nc(-c4ccc(Cl)c(C#Cc5cnc6cccnn56)c4)[nH]c3c2)CC1 | 156 to 157

Row | Compound | melting point [°C]
76 | O=C(O)C(Oc1ccc(Cl)cc1)c1ccc(Oc2ccc(Cl)cc2)cc1 (configuration not stated) | 141 to 142
77 | CCOC(=O)C(C)(C)Sc1ccc2c(-c3ccccc3F)noc2c1Cl | 83.4
78 | CCC(CC)Nc1cc(C(=O)O)ccc1N1C(=O)CCC1(CO)CO | 220 to 221
79 | CCOC(=O)C(=O)Nc1cc(C)ccc1[N+](=O)[O-] | 114
80 | ON=Cc1ccc(N2CCC3(CC2)OCCO3)cc1 | 151 to 152
81 | CC(=O)NC(=O)C(Cl)c1ccccc1 (configuration not stated) | 101 to 102
82 | O=C(Nc1cccnn1)N1CCN(c2cc(-c3ccc(F)cc3F)ncn2)CC1 | 249 to 250
83 | O=C(O)CCCCc1ccccc1CNC(=O)C1Cc2ccccc2N1S(=O)(=O)c1ccc(-c2cccc(C(F)(F)F)c2)cc1 (configuration not stated) | 98 to 99
84 | CCCNC(=S)NS(=O)(=O)c1c(NC(=O)OCC)sc(C)c1C#N | 167 to 168
85 | COc1c(C)cnc(CSc2nc3cc(C(F)(F)F)ccc3[nH]2)c1C | 163
86 | CC(=O)c1ccc(S(=O)(=O)NCc2cccnc2)cc1 | 143 to 144
87 | Cc1cccc(-c2cc3cnc(N)nc3nc2NC(=O)NC(C)(C)C)c1C | 326 to 330
88 | COc1ccc(-c2ccc3c(c2)CCc2nn(-c4ccccn4)c(O)c2-3)cc1 | 159 to 160
89 | COc1ccc2c(CNCCCCCCCCCCC(=O)O)cc3cc4c(cc3c2c1)OCO4 | 146 to 148
90 | CCc1cc(CNc2nc3ccccc3o2)c(=S)[nH]c1C | 238 to 240
91 | O=C(O)Cn1c(=O)c(=O)[nH]c2cc([N+](=O)[O-])ccc21 | > 320
92 | CN(C)C1CCc2[nH]c3cccc(F)c3c2C1 (configuration not stated) | 166 to 168
93 | CCn1nc(-c2ccc(OC)cc2)cc(C(=O)NC)c1=O | 122 to 123
94 | CC(C)(C)c1cc2c(c(C(C)(C)C)c1)OC(=O)C2=O | 165 to 168
95 | C[C@]12C(=O)[C@]3(C)O[C@]3(C)C(=O)[C@H]1[C@H]1C=C[C@@H]2C1 (racemic) | 72 to 73
96 | O=C(Nc1ccc(Cl)cc1)n1cc(F)c(=O)[nH]c1=O | > 260
97 | CCOCC(=O)Nc1cccc(NC)c1C#N | 133 to 134
